Experimental data as given in patent US20230014151A1, “COMBINATION ANTIVIRAL THERAPY FOR MEASLES” (The Trustees of Columbia University in the City of New York, priority 2019, published 2023).
Like-named read-outs stand apart in the source and are kept apart here. Square brackets hold non-standard residues; d marks the D form. Peptide text beside a SMILES is read from it. * marks the point of attachment. X4 = CC(C)CCC[C@@H](C)[C@H]1CC[C@H]2[C@@H]3CC=C4C[C@@H](OC(=O)CCOCCOCCOCCOCCNC(=O)C*)CC[C@]4(C)[C@H]3CC[C@]12C; X3 = CC(C)CCC[C@@H](C)[C@H]1CC[C@H]2[C@@H]3CC=C4C[C@@H](OC(=O)C*)CC[C@]4(C)[C@H]3CC[C@]12C; Cbz = O=C(OCc1ccccc1)*

Biological target: viral glycoproteins (H and F); Nectin-4 (Measles virus, UniProt Q786F3)
Sequence (Q786F3 24-112): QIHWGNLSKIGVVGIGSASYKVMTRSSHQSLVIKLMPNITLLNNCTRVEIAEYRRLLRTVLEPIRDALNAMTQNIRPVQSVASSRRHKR
Experiment: beta-galactosidase complementation-based fusion assay, Nectin-4 target cells
[1] = Nectin4 IC50, Table 3 (extended version)
[2] = IC50, Table 2 (salient peptides), Nectin-4 target cells

| SMILES | IC50 [1] | IC90 (read-out: Nectin4 IC90) | IC90 | IC50 [2] |
| --- | --- | --- | --- | --- |
| CC[C@H](C)[C@H](NC(=O)[C@H](C)NC(=O)[C@H](CC(N)=O)NC(=O)CNC(=O)[C@H](CC(C)C)NC(=O)[C@H](CC(N)=O)NC(=O)[C@@H](NC(=O)CNC(=O)[C@@H](NC(=O)[C@H](CC(=O)O)NC(=O)[C@H](CC(C)C)NC(=O)[C@H](CCCNC(=N)N)NC(=O)[C@H](CCC(=O)O)NC(=O)[C@H](CC(C)C)NC(=O)[C@H](CO)NC(=O)[C@@H](NC(=O)[C@@H]1CCCN1C(=O)[C@@H]1CCCN1C(=O)CNC(=O)[C@H](CO)NC(=O)CNC(=O)[C@H](CO)NC(=O)CNC(=O)CNC(=O)[C@H](Cc1ccccc1)NC(=O)[C@@H](Cc1ccccc1)NC(=O)OCc1ccccc1)[C@@H](C)CC)C(C)C)[C@@H](C)O)C(=O)N[C@@H](C)C(=O)N[C@@H](CCCCN)C(=O)N[C@@H](CC(C)C)C(=O)N[C@@H](CCC(=O)O)C(=O)N[C@@H](CC(=O)O)C(=O)N[C@@H](C)C(=O)N[C@@H](CCCCN)C(=O)N[C@@H](CCC(=O)O)C(=O)N[C@@H](CC(C)C)C(=O)N[C@@H](CC(C)C)C(=O)N[C@@H](CCC(=O)O)C(=O)N[C@@H](CO)C(=O)N[C@@H](CO)C(=O)N[C@@H](CC(=O)O)C(=O)N[C@@H](CCC(N)=O)C(=O)N[C@H](C(=O)N[C@@H](CC(C)C)C(=O)N[C@@H](CCCNC(=N)N)C(=O)N[C@@H](CS)C(=O)O)[C@@H](C)CC [FIP-HRC450-485 (no GSGSG)] | 2.77 ± 1.64 µM | 6.37 ± 4.18 µM | – | – |
| CC[C@H](C)[C@H](NC(=O)[C@H](C)NC(=O)[C@H](CC(N)=O)NC(=O)CNC(=O)[C@H](CC(C)C)NC(=O)[C@H](CC(N)=O)NC(=O)[C@@H](NC(=O)CNC(=O)[C@@H](NC(=O)[C@H](CC(=O)O)NC(=O)[C@H](CC(C)C)NC(=O)[C@H](CCCNC(=N)N)NC(=O)[C@H](CCC(=O)O)NC(=O)[C@H](CC(C)C)NC(=O)[C@H](CO)NC(=O)[C@@H](NC(=O)[C@@H]1CCCN1C(=O)[C@@H]1CCCN1C(=O)CNC(=O)[C@H](CO)NC(=O)CNC(=O)[C@H](CO)NC(=O)CNC(=O)CNC(=O)[C@H](Cc1ccccc1)NC(=O)[C@@H](Cc1ccccc1)NC(=O)OCc1ccccc1)[C@@H](C)CC)C(C)C)[C@@H](C)O)C(=O)N[C@@H](C)C(=O)N[C@@H](CCCCN)C(=O)N[C@@H](CC(C)C)C(=O)N[C@@H](CCC(=O)O)C(=O)N[C@@H](CC(=O)O)C(=O)N[C@@H](C)C(=O)N[C@@H](CCCCN)C(=O)N[C@@H](CCC(=O)O)C(=O)N[C@@H](CC(C)C)C(=O)N[C@@H](CC(C)C)C(=O)N[C@@H](CCC(=O)O)C(=O)N[C@@H](CO)C(=O)N[C@@H](CO)C(=O)N[C@@H](CC(=O)O)C(=O)N[C@@H](CCC(N)=O)C(=O)N[C@H](C(=O)N[C@@H](CC(C)C)C(=O)N[C@@H](CCCNC(=N)N)C(=O)NCC(=O)N[C@@H](CO)C(=O)NCC(=O)N[C@@H](CO)C(=O)NCC(=O)N[C@@H](CS)C(=O)O)[C@@H](C)CC [FIP-HRC450-485] | 4.24 ± 0.812 µM | > 10 µM | > 10 µM | 4.24 ± 0.812 µM |
| CC(C)CCC[C@@H](C)[C@H]1CC[C@H]2[C@@H]3CC=C4C[C@@H](OC(=O)CSC[C@H](NC(=O)CNC(=O)[C@H](CO)NC(=O)CNC(=O)[C@H](CO)NC(=O)CNC(=O)CNC(=O)[C@H](Cc5ccccc5)NC(=O)[C@@H](Cc5ccccc5)NC(=O)OCc5ccccc5)C(=O)O)CC[C@]4(C)[C@H]3CC[C@]12C [FIP-chol] (Cbz-[dF]FGGSGSGC(X3)-OH) | > 10 µM | > 10 µM | 7.615 ± 0.013 µM | 4 ± 1.08 µM |
| CC(C)CCC[C@@H](C)[C@H]1CC[C@H]2[C@@H]3CC=C4C[C@@H](OC(=O)CCOCCOCCOCCOCCNC(=O)CSC[C@H](NC(=O)CNC(=O)[C@H](CO)NC(=O)CNC(=O)[C@H](CO)NC(=O)CNC(=O)CNC(=O)[C@H](Cc5ccccc5)NC(=O)[C@@H](Cc5ccccc5)NC(=O)OCc5ccccc5)C(=O)O)CC[C@]4(C)[C@H]3CC[C@]12C [FIP-peg4-chol] (Cbz-[dF]FGGSGSGC(X4)-OH) | – | 7.615 ± 0.013 µM | 7.615 ± 0.013 µM | – |
| CC[C@H](C)[C@H](NC(=O)[C@H](C)NC(=O)[C@H](CC(N)=O)NC(=O)CNC(=O)[C@H](CC(C)C)NC(=O)[C@H](CC(N)=O)NC(=O)[C@@H](NC(=O)CNC(=O)[C@@H](NC(=O)[C@H](CC(=O)O)NC(=O)[C@H](CC(C)C)NC(=O)[C@H](CCCNC(=N)N)NC(=O)[C@H](CCC(=O)O)NC(=O)[C@H](CC(C)C)NC(=O)[C@H](CO)NC(=O)[C@@H](NC(=O)[C@@H]1CCCN1C(=O)[C@@H]1CCCN1C(C)=O)[C@@H](C)CC)C(C)C)[C@@H](C)O)C(=O)N[C@@H](C)C(=O)N[C@@H](CCCCN)C(=O)N[C@@H](CC(C)C)C(=O)N[C@@H](CCC(=O)O)C(=O)N[C@@H](CC(=O)O)C(=O)N[C@@H](C)C(=O)N[C@@H](CCCCN)C(=O)N[C@@H](CCC(=O)O)C(=O)N[C@@H](CC(C)C)C(=O)N[C@@H](CC(C)C)C(=O)N[C@@H](CCC(=O)O)C(=O)N[C@@H](CO)C(=O)N[C@@H](CO)C(=O)N[C@@H](CC(=O)O)C(=O)N[C@@H](CCC(N)=O)C(=O)N[C@H](C(=O)N[C@@H](CC(C)C)C(=O)N[C@@H](CCCNC(=N)N)C(=O)NCC(=O)N[C@@H](CO)C(=O)NCC(=O)N[C@@H](CO)C(=O)NCC(=O)N[C@@H](CSCC(=O)NCCOCCOCCOCCOCCC(=O)O[C@H]1CC[C@@]2(C)C(=CC[C@H]3[C@@H]4CC[C@H]([C@H](C)CCCC(C)C)[C@@]4(C)CC[C@@H]32)C1)C(=O)O)[C@@H](C)CC [HRC450-485-peg4-chol] | – | 0.856 ± 0.0786 µM | 0.856 ± 0.0786 µM | – |
| CC[C@H](C)[C@H](NC(=O)[C@H](C)NC(=O)[C@H](CC(N)=O)NC(=O)CNC(=O)[C@H](CC(C)C)NC(=O)[C@H](CC(N)=O)NC(=O)[C@@H](NC(=O)CNC(=O)[C@@H](NC(=O)[C@H](CC(=O)O)NC(=O)[C@H](CC(C)C)NC(=O)[C@H](CCCNC(=N)N)NC(=O)[C@H](CCC(=O)O)NC(=O)[C@H](CC(C)C)NC(=O)[C@H](CO)NC(=O)[C@@H](NC(=O)[C@@H]1CCCN1C(=O)[C@@H]1CCCN1C(C)=O)[C@@H](C)CC)C(C)C)[C@@H](C)O)C(=O)N[C@@H](C)C(=O)N[C@@H](CCCCN)C(=O)N[C@@H](CC(C)C)C(=O)N[C@@H](CCC(=O)O)C(=O)N[C@@H](CC(=O)O)C(=O)N[C@@H](C)C(=O)N[C@@H](CCCCN)C(=O)N[C@@H](CCC(=O)O)C(=O)N[C@@H](CC(C)C)C(=O)N[C@@H](CC(C)C)C(=O)N[C@@H](CCC(=O)O)C(=O)N[C@@H](CO)C(=O)N[C@@H](CO)C(=O)N[C@@H](CC(=O)O)C(=O)N[C@@H](CCC(N)=O)C(=O)N[C@H](C(=O)N[C@@H](CC(C)C)C(=O)N[C@@H](CCCNC(=N)N)C(=O)NCC(=O)N[C@@H](CO)C(=O)NCC(=O)N[C@@H](CO)C(=O)NCC(=O)N[C@@H](CS)C(=O)O)[C@@H](C)CC [HRC450-485] | > 10 µM | > 10 µM | > 10 µM | > 10 µM |
